Measurements taken from patent US20240156795A1, “METHODS AND COMPOSITIONS FOR THE TREATMENT OF DRUG RESISTANT TOPICAL INFECTIONS” (Lankenau Institute for Medical Research, priority 2020, published 2024).
Where “and” joins values, the source holds several entries; their conditions need not be identical. Equal values may be shown once. One block for each compound: values may come before it.

What was measured:
[1] = i.v. infusion of >50% solutions, cardiac surgery trial (Bennett-Guerrero et al., 2009); cited from earlier work
onychomycosis = conditions: topical treatment of toenail fungus; cited from earlier work
Trichophyton rubrum = conditions: seven strains of Trichophyton rubrum; reported by others [28]; cited from earlier work
IDO1 = biological target: T1, IDO1 (Homo sapiens, UniProt P14902); assay: IDO1 activity in U937 cells, kynurenine formation after IFN-γ induction; type: cell-based; conditions: IFN-γ induced, FIG. 2, read-out: IC50 for IDO inhibition in a cellular assay
T1 construct: endogenous in cells; host or cells: U937 cells, induced with IFN-γ
T1 sequence (P14902 whole entry): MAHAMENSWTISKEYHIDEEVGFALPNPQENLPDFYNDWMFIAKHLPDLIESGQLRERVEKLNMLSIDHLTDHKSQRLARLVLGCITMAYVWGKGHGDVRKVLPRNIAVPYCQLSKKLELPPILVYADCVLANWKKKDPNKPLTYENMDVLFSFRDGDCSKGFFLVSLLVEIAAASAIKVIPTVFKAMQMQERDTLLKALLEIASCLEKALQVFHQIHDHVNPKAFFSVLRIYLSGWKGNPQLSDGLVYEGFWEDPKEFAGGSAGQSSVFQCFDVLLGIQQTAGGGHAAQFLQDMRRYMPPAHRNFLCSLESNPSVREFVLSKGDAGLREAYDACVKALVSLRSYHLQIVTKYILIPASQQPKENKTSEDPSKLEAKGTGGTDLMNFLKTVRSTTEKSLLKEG
Method: IDO1 activity in U937 cells was assessed by spectrophotometric measurement of kynurenine formation in the medium at least 24 hours post-induction with IFN-γ. Values are means of duplicate determinations ±SD.
The IDOL enzyme was first recognized as an antimicrobial. The approved topical formulant ethyl pyruvate (EP) can also blunt IDO levels and reverse immunosuppression in the setting of cancer to enable immune eradication. […] This is finding is not previously reported in the literature. The details of the assay protocol are published elsewhere.

HIF1 = HIF1 stabilization in cells from B6 HIF-luciferase reporter mice, assayed ex vivo; type: cell-based, mouse
Method: Cells derived from B6 HIF-luciferase reporter mice were assayed ex vivo to detect the stabilization of HIF1 protein. Values are means of duplicate determinations ±SD. In the course of studies of inhibitors of proline hydroxylase-domain protein (PHD), an enzyme regulating cellular HIF1 levels, we observed that 10 μM ciclopirox enhanced the readout by 15-fold (screening data not shown). […] The details for the assay protocol are published elsewhere.

SMILES: CCOC(=O)C(C)=O [EP, ethyl pyruvate]
toxicity in humans [1]: No significant toxicities were reported

SMILES: C=C1CCN([C@H](C)[C@](O)(Cn2cncn2)c2ccc(F)cc2F)CC1 [Jublia, efinaconazole]
efficacy for complete clinical cure (onychomycosis): ≤ 18%

SMILES: OB1OCc2cc(F)ccc21 [Kerydin, tavarborole]
efficacy for complete clinical cure (onychomycosis): ≤ 10%

IC50 (IDO1): ~2 µM | EC50 (HIF1; Mus musculus, follow-up study, FIG. 1, read-out: apparent EC50 for HIF level stimulation): 5 µM
SMILES: Cc1cc(C2CCCCC2)n(O)c(=O)c1 [ciclopirox, ciclopirox olamine]
average MIC concentration (Trichophyton rubrum): ~16 μg/ml and ~77 μM | efficacy for complete clinical cure (onychomycosis): ≤ 12% | enhancement of HIF readout (HIF1; 10 μM ciclopirox, screening data not shown): 15 fold | maximal stimulation of HIF levels over the solvent control (HIF1; follow-up study, FIG. 1): ~35 fold
